Two molecules from US5710150A, “Benzazepine derivative, pharmaceutical composition thereof, and intermediate thereof” (Yamanouchi Pharmaceutical Co., Ltd., priority 1993, dated 1998) can be followed below.

Assay [1] is described as follows: Water diuresis action in conscious rats (oral administration). The assay is classed as in vivo, male Wister rats. The note with it: 3 mg/kg oral. The protocol:
Each compound to be tested was suspended in 0.5% methylcellulose solution and orally administered in a dose of 3 mg/kg to male Wister rats (body weight, 270 to 300 g) which have been subjected to fasting with no water for 16 to 20 hours. Using a metabolic cage, urine samples were collected just after the administration of each test sample until 4 hours thereafter to measure the amount of urine.

Assay [2] deals with T1, arginine vasopressin V1 receptor (Rattus norvegicus, UniProt P30560).
T1 construct: A rat liver membrane sample was prepared; from tissue; host or cells: rat liver membranes
T1 sequence (P30560 whole entry): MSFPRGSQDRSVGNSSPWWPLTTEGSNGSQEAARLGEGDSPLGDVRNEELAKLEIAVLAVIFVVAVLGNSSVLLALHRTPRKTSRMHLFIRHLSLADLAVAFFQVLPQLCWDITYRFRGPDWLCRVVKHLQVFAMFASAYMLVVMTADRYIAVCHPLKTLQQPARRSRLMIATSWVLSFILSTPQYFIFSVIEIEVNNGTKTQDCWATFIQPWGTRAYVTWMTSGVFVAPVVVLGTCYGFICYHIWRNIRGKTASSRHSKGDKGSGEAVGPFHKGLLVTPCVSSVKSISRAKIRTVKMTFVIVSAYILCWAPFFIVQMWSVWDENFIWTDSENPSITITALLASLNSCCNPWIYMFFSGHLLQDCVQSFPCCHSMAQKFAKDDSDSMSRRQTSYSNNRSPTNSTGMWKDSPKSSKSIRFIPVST
Put plainly: V1 receptor binding assay ([3H]-Arg-vasopressin, rat liver membrane). The procedure:
(1) V1 receptor binding assay
A rat liver membrane sample was prepared in accordance with the method of Nakamura et al. (J. Biol. Chem., 258, 9283 (1983)), and [^3 H]-Arg-vasopressin (2 nM, specific activity=75.8 Ci/mmol), 70 μg of the membrane sample and each drug to be tested (10^-8 to 10^-4 M) were incubated at 30° C. for 30 minutes in 250 μl of 100 mM Tris-HCl buffer (pH=8.0) containing 5 mM of magnesium chloride, 1 mM of ethylenediaminetetraacetic acid (EDTA) and 0.1% of bovine serum albumin (BSA). Thereafter, the incubation solution was sucked off using a cell harvester and free ligand and excess buffer were removed by passing the reaction mixture through a glass filter (GF/B), thereby trapping receptor-bound labeled ligand on the glass filter. The glass filter was taken out, thoroughly dried and then mixed with a liquid scintillation cocktail, and the amount of the membrane-bound [^3 H]-vasopressin was measured using a liquid scintillation counter to calculate the inhibition ratio by the following formula. [formula] C1 : amount of [^3 H]-vasopressin bound to the membrane in the coexistence of known amount of each drug to be tested and [^3 H]-vasopressin
C0 : amount of [^3 H]-vasopressin bound to the membrane when the drug to be tested was not added
B1 : amount of [^3 H]-vasopressin bound to the membrane in the presence of excess vasopressin (10^-6 M)
[formula] [L]: concentration of radioactive ligand KD: dissociation constant calculated from Scatchard plot
Negative logarithm of the thus calculated Ki value was used as pKi value.

The target in assay [3] is arginine vasopressin V2 receptor (Oryctolagus cuniculus, UniProt G1TA00). The experiment in a line: V2 receptor binding assay ([3H]-Arg-vasopressin, rabbit renal medulla membrane).
Chain of arginine vasopressin V2 receptor (G1TA00 78-446): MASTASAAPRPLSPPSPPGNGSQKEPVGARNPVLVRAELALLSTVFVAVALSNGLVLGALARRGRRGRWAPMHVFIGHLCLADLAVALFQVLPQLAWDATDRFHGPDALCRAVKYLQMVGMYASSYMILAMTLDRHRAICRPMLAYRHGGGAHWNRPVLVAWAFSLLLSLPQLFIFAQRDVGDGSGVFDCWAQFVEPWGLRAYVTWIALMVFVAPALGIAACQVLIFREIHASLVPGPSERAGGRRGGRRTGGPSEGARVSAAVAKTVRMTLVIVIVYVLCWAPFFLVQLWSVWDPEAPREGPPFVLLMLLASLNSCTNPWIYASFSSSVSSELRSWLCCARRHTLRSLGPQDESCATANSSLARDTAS
The test system of a further assay is V1. The experiment in a line: V1 antagonism in conscious rats (oral administration), AVP-induced diastolic blood pressure increase. In kind it is in vivo, male Wister rats. To be noted: 1 mg/kg oral, 30 minutes to 6 hours after administration, AVP 30 mU/kg i.v.
Setting [4] is: compared with OPC-31260 and OPC-21268.

As to `Cc1ccccc1C(=O)Nc1ccc(C(=O)N2CCCC(N(C)C)c3ccccc32)cc1` (stereo not shown) [Comparative compound (1), OPC-31260], the “amount of urine compared with solvent-administered group, 2 to 4 hours (in words)” value in assay [1] (2 hours to 4 hours after administration) is recorded as “almost the same as that in the solvent-administered group”. Further, the “amount of urine relative to solvent-administered group, 0 to 2 hours” value in assay [1] (just after administration to 2 hours later) is 11 times.

As for `CN(C)C1CCN(C(=O)/C=C2/c3ccccc3N(C(=O)c3ccc(NC(=O)c4ccccc4-c4ccccc4)cc3)CCC2(F)F)CC1.Cl` [Example 13, (Z)-4'-[[4,4-difluoro-5-[[(4-dimethylaminopiperidino)carbonyl]methylene]-2,3,4,5-tetrahydro-1H-1-benzazepin-1-yl]carbonyl]-2-phenylbenzanilide hydrochloride], in assay [2] (setting [4]), the “antagonism on V1 receptor (in words)” value is “excellent antagonisms on both V1 and V2 receptors”. For the same molecule, in assay [2] (rat liver membrane, [3H]-Arg-vasopressin 2 nM, 30° C., 30 minutes, pH 8.0, read-out: Binding activity on arginine vasopressin V1 receptor (pKi) (converted)), the Ki is 79.4 pM. Also, the “antagonism on V2 receptor (in words)” value in assay [3] (setting [4]) was “excellent antagonisms on both V1 and V2 receptors”. Also, the “Binding activity on arginine vasopressin V2 receptor (pKi)” value in assay [3] (rabbit renal medulla membrane, [3H]-Arg-vasopressin 2 nM) was found to be 9.58. For the same molecule, the “Pressure increment by AVP (before compound = 100%)” value in the assay on V1 is at most 50%.
